Source: the supplement of paper PMC10599287

Legend:
[1] = compound: CCNC(=O)C#Cc1ccc2c(C(=Nc3ccc(CN(C)C)cc3)c3ccccc3)c(O)[nH]c2c1; assay: absolute IC70 (antiproliferative, propidium iodide); higher = less potent; details: exposure time: 4 days
Experimental: (§1)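 Modified propidium iodide survival/proliferation assay in 294 human tumor cell lines (2D monolayer for solid tumors, suspension for hematologic lines) after 4 days of continuous exposure to 10 concentrations in half-log steps from 0.001 to 30 µM. Absolute IC70 was fitted by four-parameter nonlinear regression of T/C × 100 (%) values; 30 µM is the top dose.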

[2] = compound: O=C(NOCCO)c1ccc2cncn2c1Nc1ccc(I)cc1F [GDC-0623]; assay: as above; details: exposure time: 4 days
Experimental: as §1

Test System	absolute IC70 [1]	absolute IC70 [2]
22RV1	616 nM	> 30000 nM
786-O	1170 nM	> 30000 nM
A172	252 nM	1590 nM
A204	614 nM	> 30000 nM
A427	283 nM	> 30000 nM
A498	4340 nM	> 30000 nM
A2780	546 nM	24400 nM
A-253	> 30000 nM	> 30000 nM
A-431	30 nM	563 nM
ACHN	765 nM	> 30000 nM
BT-474	4060 nM	> 30000 nM
BT-549	1780 nM	> 30000 nM
BXF_1036	115 nM	8 nM
BXF_1228	3230 nM	> 30000 nM
BXF_1352	45 nM	11 nM
BXF_5637	20 nM	359 nM
CAKI-1	2360 nM	> 30000 nM
CAL-27	250 nM	14 nM
CAL-33	346 nM	517 nM
CAL-51	61 nM	> 30000 nM
CCRF-CEM	13 nM	> 30000 nM
CCRF-CEM-VCR	73 nM	> 30000 nM
CNXF_498	5620 nM	> 30000 nM
COLO-205	14 nM	17 nM
COLO-320	2110 nM	> 30000 nM
COLO-678	3000 nM	> 30000 nM
COLO-741	524 nM	38.9 nM

Test System	absolute IC70 [1]	absolute IC70 [2]
CXF_94	554 nM	167 nM
CXF_260	324 nM	194 nM
CXF_280	1550 nM	> 30000 nM
CXF_1103	11 nM	427 nM
Caco-2	4760 nM	> 30000 nM
Calu-1	3440 nM	> 30000 nM
DAUDI	10 nM	> 30000 nM
DETROIT562	3090 nM	> 30000 nM
DIFI	91 nM	522 nM
DMS-273	5120 nM	> 30000 nM
DND-39	72 nM	> 30000 nM
DU-145	569 nM	1240 nM
DU-4475	9 nM	4 nM
DoTc2-4510	260 nM	> 30000 nM
EFE-184	3950 nM	> 30000 nM
EFO-21	2140 nM	> 30000 nM
EFO-27	724 nM	> 30000 nM
EGI-1	693 nM	> 30000 nM
EJM	2820 nM	> 30000 nM
EM-2	277 nM	192 nM
EVSA-T	2240 nM	> 30000 nM
FADU	2260 nM	> 30000 nM
FU97	6600 nM	> 30000 nM
GP5d	80.2 nM	> 30000 nM
GXA_3011	97 nM	> 30000 nM
GXA_3013	3280 nM	> 30000 nM
GXA_3023	69 nM	1440 nM

Test System	absolute IC70 [1]	absolute IC70 [2]
GXA_3067	583 nM	265 nM
GXA_3080	114 nM	117 nM
GXF_251	944 nM	3340 nM
GXF_1172	510 nM	1270 nM
GXF_23132	20600 nM	> 30000 nM
H69AR	688 nM	> 30000 nM
H-MESO-1	5670 nM	> 30000 nM
HCC33	2050 nM	> 30000 nM
HCC1937	475 nM	> 30000 nM
HCC2998	896 nM	257 nM
HCT116	51 nM	84 nM
HCT-15	1440 nM	> 30000 nM
HEC-1-A	1580 nM	> 30000 nM
HH	1370 nM	> 30000 nM
HL-60	27 nM	6 nM
HNXF_1853	641 nM	451 nM
HNXF_1859	116 nM	117 nM
HPAC	120 nM	> 30000 nM
HPAF-II	285 nM	79 nM
HT-29	392 nM	87 nM
HT-115	14.4 nM	57.6 nM
HT-1080	710 nM	279 nM
HUP-T3	291 nM	44 nM
HUT-78	72 nM	> 30000 nM
Hep-G2	55 nM	16500 nM
